# Entries after “also recorded” stand apart in the source; their conditions may differ. Read-outs that look alike come from different tables or passages of the source.
# Columns and labels:
# [1] = test system: THP-1 cells; type: cell-based, human
# [2] = test system: influenza A/WSN/33 virus; type: cell-based
# [3] = test system: exotoxin A from Pseudomonas aeruginosa (ExoA); type: cell-based
# [4] = test system: acidic compartments; type: cell-based
# [5] = test system: MEK2; type: cell-based, murine
# [6] = test system: Nipah-pseudotyped lentivirus; type: cell-based
# [7] = test system: PA+LFnDTA; type: cell-based
# [8] = test system: F. tularensis LVS; type: cell-based
# [9] = test system: EcCDT
# [10] = test system: anthrax lethal toxin (LT); type: cell-based, mice
# [11] = test system: PA; type: cell-based
# [12] = test system: VSV-pseudotyped lentivirus; type: cell-based
# [13] = test system: anthrax lethal toxin (LT); assay: cells; type: cell-based, murine; settings: for IC50: Mus musculus
# [14] = test system: EGF; type: cell-based
# [15] = test system: HdCDT
# [16] = test system: Diphtheria toxin; type: cell-based
# [17] = test system: EGFR; type: cell-based
# [18] = test system: transferrin (Tf); type: cell-based
# [19] = test system: LT; settings: rat, in vivo
# [20] = test system: caspase-1; type: cell-based, mice
# [21] = test system: GFP-expressing Armstrong variant of LCMV; type: cell-based
# [22] = test system: anthrax lethal toxin (LT); type: cell-based
# [23] = test system: LT; settings: read-out: IC50 of previously reported toxin entry inhibitors; cited from earlier work
# [24] = RAW264.7, read-out: IC50 (In uM)
# [25] = RAW264.7, read-out: IC50, inhibition of LT-induced cell death
molecule,measurement,setting,value
"Cc1cccc(C)c1NC(=O)N/N=C/c1ccc(Br)cc1 [Compound 1, N^1-(4-BROMOBENZYLIDENE)-N^4-(2,6-DIMETHYLPHENYL)SEMICARBAZONE]",trafficking of Texas-red dextran to phagosomes,[1],Does Not Block Texas Red-Dextran Trafficking to Phagosomes; also recorded: Neither EGA nor bafilomycin A1 inhibited
same,influenza virus infection (reporter activation),[2],Inhibits Entry of Influenza virus; also recorded: completely inhibited infection; also recorded: partial protection
same,protection of HeLa cells from ExoA,[3],effectively protected
same,cell-associated Lysotracker Red fluorescence (neutralization of acidic compartments),[4],Does Not Neutralize Acidic Compartments; also recorded: did not reduce
same,LT-mediated cleavage of MEK2,[5],inhibits LT-mediated cleavage of MEK-2; also recorded: completely abrogated
same,infection by Nipah-pseudotyped lentivirus,[6],Does Not Inhibit Infection; also recorded: did not inhibit
same,protection from PA+LFnDTA,[7],Protects Cells from PA+LFnDTA; also recorded: resistant
same,phagocytic uptake of F. tularensis LVS,[8],Does Not Block Phagocytic Uptake of F. tularensis; also recorded: Neither EGA nor bafilomycin A1 blocked
same,intoxication (cell cycle arrest) by EcCDT,[9],did not inhibit intoxication
same,protection of BMDMs from killing by LT,[10],protected
same,binding of PA83 to cells or proteolytic processing to PA63,[11],did not block
same,infection by VSV-G pseudotyped virus,[12],Inhibits Infection by Low pH-dependent VSV-pseudotyped lentivirus; also recorded: effectively inhibited; also recorded: neutralized
same,"rescued viability, of unintoxicated controls",[13],up to 100%
same,time after LT at which addition still completely protects cells from killing,[13],up to 15 minutes
same,IC50,[13]; RAW264.7,1.4 µM
same,IC50,[13]; [24],1.27 µM
same,IC50,[13]; [25],1.4 µM
same,IC50,"[13]; RAW264.7, read-out: IC50 in cell-based LT intoxication experiments",1.4 µM
same,EGF retention in EEA1-positive endosomes,[14],Results in EGF Retention in EEA1+ Endosomes; also recorded: retained in enlarged endosomes
same,stabilization of EGF,[14],stabilized EGF up to 60 min
same,HdCDT localization in EEA-1-positive vesicles,[15],Traps HdCDT in Enlarged EEA-1-Positive Vesicles
same,cytotoxicity induced by Hd-CDT,[15],Inhibits cytotoxicity induced by Hd-CDT
same,protection of HeLa cells from DT,[16],effectively protected
same,EGFR degradation at early times post EGF stimulation,[17]; 15-30 min,Slows EGFR-Degradation at 15 Minutes; also recorded: significantly less EGFR degraded at 30 min
same,transferrin recycling to the cell surface,[18],Does Not Inhibit Transferrin Receptor Recycling to the Plasma Membrane; also recorded: had no affect
same,tolerability,[19],well tolerated in rats
same,LT-mediated caspase-1 activation,[20],inhibits LT-mediated caspase-1 activation; also recorded: active caspase-1 was not detected
same,acute LCMV infection,[21],Reduces Acute LCMV Infection; also recorded: decreased the total number of cells infected and the amount of virus being produced
"Cc1cccc(C)c1NC(=O)N/N=C/c1ccc(N=[N+]=[N-])cc1F [Compound 3, N^1-(4-AZIDO-2-FLUOROBENZYLIDENE)-N^4-(2,6-DIMETHYLPHENYL)SEMICARBAZONE]",protection against LT after UV irradiation and washout (media exchange),[22],did not provide protection; also recorded: did not offer statistically significant protection
same,IC50,[13]; [25],2.2 µM
"Cc1cccc(C)c1NC(=O)N/N=C/c1ccc(N=[N+]=[N-])cc1 [Compound 4, N^1-(4-AZIDOBENZYLIDENE)-N^4-(2,6-DIMETHYLPHENYL)SEMICARBAZONE]",protection against LT after UV irradiation and washout (media exchange),[22],retained viability; also recorded: statistically significant protection; also recorded: conferred irreversible resistance to LT
same,IC50,[13]; RAW264.7,2.8 µM
same,IC50,[13]; [24],2.82 µM
same,IC50,[13]; [25],~3 µM
"Cc1cccc(C)c1NC(=O)N/N=C/c1c(F)c(F)c(N=[N+]=[N-])c(F)c1F [Compound 5, N^1-(4-AZIDO-2,3,5,6-TETRAFLUOROBENZYLIDENE)-N^4-(2,6-DIMETHYLPHENYL)SEMICARBAZONE]",protection against LT after UV irradiation and washout (media exchange),[22],statistically significant protection; also recorded: most effective irreversible protection; also recorded: conferred irreversible resistance to LT
same,protection of cells from LT (in words),[13],poor inhibitor; also recorded: only weakly protective
"C/C(=N\NC(=O)Nc1c(C)cccc1C)c1ccc(Br)cc1 [Compound 15, N^1-(4-BROMOPHENYLETHYLIDENE)-N^4-(2,6-DIMETHYLPHENYL)SEMICARBAZONE]",IC50,[13]; RAW264.7,2.5 µM
same,IC50,[13]; [24],2.5 µM
same,IC50,[13]; [25],2.5 µM
"Cc1cccc(C)c1NC(=O)N(C)/N=C/c1ccc(Br)cc1 [Compound 16, N^1-2-(4-BROMOBENZYLIDENE)-N^4-(2,6-DIMETHYLPHENYL)1-METHYLHYDRAZINECARBOXAMIDE]",IC50,[13]; RAW264.7,1.96 µM
same,IC50,[13]; [24],1.96 µM
same,IC50,[13]; [25],2 µM
"C#CCN(/N=C/c1ccc(Br)cc1)C(=O)Nc1c(C)cccc1C [Compound 17, 2-(4-BROMOBENZYLIDENE)-N-(2,6-DIMETHYLPHENYL)-1-(PROP-2-YN-1-YL)HYDRAZINECARBOXAMIDE]",IC50,[13]; RAW264.7,> 12.5 µM
same,IC50,[13]; [25],> 12.5 µM
"Cc1cccc(C)c1NC(=S)N/N=C/c1ccc(Br)cc1 [Compound 19a, N^1-(4-BROMOBENZYLIDENE)-N^4-(2,6-DIMETHYLPHENYL)THIOSEMICARBAZONE]",IC50,[13]; RAW264.7,1.52 µM
same,IC50,[13]; [24],1.52 µM
same,IC50,[13]; [25],1.5 µM
"Cc1cccc(C)c1/N=C(\N)N/N=C/c1ccc(Br)cc1 [Compound 22, 2-(4-BROMOBENZYLIDENE)-N′-(2,6-DIMETHYLPHENYL)HYDRAZINECARBOXIMIDAMIDE]",IC50,[13]; [25],13.8 µM
"C#CCN(/N=C/c1ccc(N=[N+]=[N-])cc1)C(=O)Nc1c(C)cccc1C [Compound 28, 2-(4-Azidobenzylidene)-N-(2,6-dimethylphenyl)-1-(prop-2-yn-1-yl)hydrazinecarboxamide]",protection of cells from LT (in words),[13],did not offer any protection
same,IC50,[13]; RAW264.7,> 25 µM
"Cl.N [ammonium chloride, reference compound]",cell-associated Lysotracker Red fluorescence (neutralization of acidic compartments),[4],markedly decreased
same,IC50,[23],5000 µM
same,EGFR stabilization at 60 minutes,[17],inhibit EGF-induced receptor degradation
CCN(CC)CCCC(C)Nc1ccnc2cc(Cl)ccc12 (stereo not drawn) [chloroquine],IC50,[23],100 µM
"CCOC(=O)C1=C[C@@H](OC(CC)CC)[C@H](NC(C)=O)[C@@H](N)C1 [oseltamivir, reference compound]",influenza virus infection (reporter activation),[2],exhibited no protection
CCN(CC)CCCC(C)Nc1c2ccc(Cl)cc2nc2ccc(OC)cc12 (stereo not drawn) [quinacrine],IC50,[23],40 µM
"NC(=O)c1ncn([C@@H]2O[C@H](CO)[C@@H](O)[C@H]2O)n1 [ribavirin, reference compound]",influenza virus infection (reporter activation),[2],effectively blocked reporter activation
bafilomycin A1 [reference compound],trafficking of Texas-red dextran to phagosomes,[1],Neither EGA nor bafilomycin A1 inhibited
same,cell-associated Lysotracker Red fluorescence (neutralization of acidic compartments),[4],markedly decreased
same,phagocytic uptake of F. tularensis LVS,[8],Neither EGA nor bafilomycin A1 blocked

# From US10730848B2 (priority 2013, dated 2020)
